Test results reported in patent US20210196793A1, “Pharmaceutical Combination Comprising Epidermal Growth Factor and Secretagogue Peptide GHRP6 for the Restoration of Brain Damage” (CENTRO DE INGENIERÍA GENÉTICA Y BIOTECNOLOGÍA, priority 2018, published 2021).

System: patients with Amyotrophic Lateral Sclerosis
Assay: Patients with Amyotrophic Lateral Sclerosis, ALSFRS-R functional scale
Type: in vivo, human
Conditions: for ALSFRS-R before treatment: baseline
Description: Forty patients with definite diagnosis of Amyotrophic Lateral Sclerosis were treated with EGF 0.6 μg/kg of body weight, and GHRP6 60 μg/kg of body weight, intravenously, every other day, during 6 months, together with Rilutek® (Riluzole). Previously, these patients were stratified according to the origin of the disease, spinal (n=25) or bulbar (n=15). Another group of 30 patients with definite diagnosis of Amyotrophic Lateral Sclerosis, also stratified according to origin, spinal (n=21) or bulbar (n=9), were treated only with Rilutek®.
Before the beginning and after the end of the trial, all patients were evaluated using the functional scale for Amyotrophic Lateral Sclerosis (ALSFRS-R). The ALSFRS-R scale is usually used for the neurological and functional evaluation of patients with said disease. This scale includes various functional items, such as those related to language, salivation, swallowing, the ability to write, handling eating utensils, dressing and sanitizing, turning in bed, climbing stairs, and breathing.

## Nc1nc2ccc(OC(F)(F)F)cc2s1 [Rilutek ®, Riluzole]
After 6 months of treatment, spinal and bulbar onset
  clinical improvement (salivation, swallowing, breathing, dysarthria): None of the latter was observed
Bulbar origin, after 6 months of treatment
  ALSFRS-R after the treatment: 33.1 ± 8.32
Bulbar origin
  ALSFRS-R before treatment: 35.1 ± 6.2
Spinal origin, after 6 months of treatment
  ALSFRS-R after the treatment: 38.2 ± 3.34
Spinal origin
  ALSFRS-R before treatment: 38.7 ± 4.4
